“And” between values parts separate entries of the source, which are not always exact repeats. Identical values can stand only once. Like-named read-outs stand apart in the source and are kept apart here.
Columns and labels:
[1] = tested on: Folsomia candida; settings: cited from earlier work
[2] = Chemical analysis (LC-MSMS) and degradation of thiamethoxam in LUFA 2.2 soil; type: physicochemical
Method: The samples were analysed for thiamethoxam by the commercial certified analytical laboratory Groen Agro Control in Delfgauw, The Netherlands, using LC-MSMS. Detection limit was 0.01 mg/kg dry soil.
Using data on the measured concentrations of thiamethoxam, half-life (DT50) values were estimated assuming first order degradation kinetics. The equation C = C0 × e^−k×t was fitted to the data, with C = concentration at time t in days, C0 is concentration at t = 0 and k = degradation rate constant (day^−1). DT50 was derived as ln(2)/k.

[3] = pH 7, 20°C; ref Jeschke et al. [2011]; cited from earlier work
[4] = tested on: Folsomia candida; test: Folsomia candida multigeneration (P, F1, F2) survival and reproduction test in freshly spiked LUFA 2.2 soil; type: in vivo; settings: nominal concentrations
Method: All tests were performed using natural standard LUFA 2.2 soil (LUFA Speyer, Germany), having approximately 1.6% organic carbon, water holding capacity (WHC) of 45%, and soil pH (0.01 M CaCl2) measured in a preliminary test, ranging between 5.03 and 5.87.
Stock solutions of both compounds were prepared in milli-Q water in order to spike the chemicals in the test soil and at the same time bring its moisture content to 50% of the water holding capacity (WHC). The concentration range used for both compounds was: Control −0.04 −0.12 −0.37 −1.1 −3.3 −10 mg a.s./kg dry soil. Due to the toxic effect of the neonicotinoids, the three highest concentrations had to be dropped for F1 and F2 generations. Tests were performed in 100 ml glass jars, containing 30 g moist soil, using five replicate test jars with animals, and two replicates containing approximately 15 g of soil each, without animals (soil analysis). All the test jars were weighed at the start of the test, so the water loss could be checked and replenished, if needed, on a weekly basis.
Folsomia candida Willem 1902 is a cosmopolitan arthropod, belonging to the Collembola order, which is phylogenetically related to the Insecta. The family Isotomidae have a ventral tube or collophore which is involved in the exchange of fluids with the external environment, being an important route of exposure to contaminants present in the pore water. Sexual maturity of F. candida is achieved between 21 to 24 days after hatching (sixth instar), and each individual can lay about 30 to 50 eggs per batch (Fountain and Hopkin [2005]). Adults of this species were taken from cultures at the Department of Ecological Science at the Vrije Universiteit in Amsterdam. In order to obtain synchronized animals, adults were transferred from the culture to 125 ml translucent plastic boxes with a 2 cm layer of plaster of Paris and activated charcoal (8:1), moistened with water, and left for a period of 2–3 days to lay eggs, after which they were removed. The eggs were incubated under a 12 h light/12 h dark regime at 20°C and 75% relative humidity, where they hatched. Juveniles of 10–12 days old were used for starting the test for the parental (P) generation.
Ten age-synchronized animals (10–12 days old) were added to the replicate test jars in generation P. For generations F1 and F2 the age of the animals transferred was around 8–9 days. […] The same procedure was performed for ending the tests with the F1 (after 35–36 days) and F2 (28 days) generations. At the end of the tests, the jars were flooded with water to allow the animals to float and being photographed using a Nikon COOLPIX P510 camera. The images were analysed using the software ImageJ, a Java-based processing program adjusted for counting the animals. For the P and F1 generations, only the juveniles produced in all replicates of each concentration were transferred, using a sieve, to a single container with a plaster of Paris bottom, and left overnight in a climate room, at 20 ± 2 °C, with a 75% relative humidity and a photoperiod of 16:8 h […]. On the following day, batches of 10 randomly selected animals were transferred to jars, with their respective concentration, filled with soil freshly spiked, and covered with an opaque black plastic lid, loosely attached to the rim to allow for aeration. At the start and every week a few grains of dry baker’s yeast (Instant yeast from Algist Bruggeman N.V, Ghent, Belgium) and water were added to the test vessels if needed.
All the dose-response data was analysed using the package “drc”(dose response curve) in the software R, using a general model fitting function–drm, with the option for model select (Ritz and Streibig [2005]). The endpoints LC50, addressing the effects on adult survival, and ECx, addressing sub-lethal effects on the juvenile population were expressed on the basis of nominal soil concentrations.

[5] = cited from earlier work
[6] = LUFA 2.2 soil, ref De Lima e Silva et al. [2017], van Gestel et al. [2017]
[7] = Lufa 2.2 soil, ref de Lima e Silva et al. [2017]
[8] = Lufa 2.2 soil, ref van Gestel et al. [2017]
[9] = sphagnum peat (10%), kaolinite clay (20%), quartz sand (70%), ref Reynolds [2008]
[10] = F1 generation, 35-36 days exposure
[11] = F1 generation, 35-36 days exposure, listed as pure thiamethoxam
[12] = F2 generation, 28 days exposure
[13] = F2 generation, 28 days exposure, listed as pure thiamethoxam

O=[N+]([O-])NC1=NCCN1Cc1ccc(Cl)nc1 [Imidacloprid, imidacloprid]
EC50 [1, 6]: 0.26–0.29 mg a.s./kg dry soil
LC50 [1, 6]: 0.44–0.47 mg a.s./kg dry soil
EC50 [1, 7]: 0.26 mg a.s./kg
LC50 [1, 7]: 0.47 mg a.s./kg
EC50 [1, 8]: 0.29 mg a.s./kg
LC50 [1, 8]: 0.44 mg a.s./kg
EC50 [1, 9]: 0.26 mg a.s./kg
LC50 [1, 9]: 0.86 mg a.s./kg

CN1COCN(Cc2cnc(Cl)s2)/C1=N\[N+](=O)[O-] [Thiamethoxam Pure, thiamethoxam]
half-life ([2]; LUFA 2.2 soil, average over nominal 0.12-1.1 mg/kg dry soil, read-out: DT50 (half-life in soil), average (converted)): 139 days
DT50 (half-life in soil), range over the concentrations ([2]; LUFA 2.2 soil, nominal 0.12-1.1 mg/kg dry soil): 112 to 165 days
half-life ([2]; LUFA 2.2 soil, nominal 0.12-1.1 mg/kg dry soil, read-out: DT50 (half-life in soil), range over the concentrations): 112 to 156 days
Concentration in soil as % of the nominal ([2]; first day of the experiment (t = 0), pure and Actara treatments together): 75–100%
half-life at 0.12 mg/kg dry soil ([2]; nominal 0.12 mg/kg dry soil, LUFA 2.2 soil, first order degradation kinetics, read-out: DT50 (half-life in soil) (converted)): 165 days
half-life at 0.37 mg/kg dry soil ([2]; nominal 0.37 mg/kg dry soil, LUFA 2.2 soil, first order degradation kinetics, read-out: DT50 (half-life in soil) (converted)): 140 days
half-life at 1.1 mg/kg dry soil ([2]; nominal 1.1 mg/kg dry soil, LUFA 2.2 soil, first order degradation kinetics, read-out: DT50 (half-life in soil) (converted)): 112 days
Recovery Rate ([2]; t = 0, nominal 0.12 mg/kg dry soil): 75%
Measured Concentration of thiamethoxam in soil ([2]; t = 0, nominal 0.12 mg/kg dry soil, LUFA 2.2 soil): 0.09 mg/kg dry soil
Recovery Rate ([2]; t = 0, nominal 0.37 mg/kg dry soil): 84%
Measured Concentration of thiamethoxam in soil ([2]; t = 0, nominal 0.37 mg/kg dry soil, LUFA 2.2 soil): 0.31 mg/kg dry soil
Recovery Rate ([2]; t = 0, nominal 1.1 mg/kg dry soil): 85%
Measured Concentration of thiamethoxam in soil ([2]; t = 0, nominal 1.1 mg/kg dry soil, LUFA 2.2 soil): 0.94 mg/kg dry soil
Recovery Rate ([2]; t = 28 days, nominal 0.12 mg/kg dry soil): 66%
Measured Concentration of thiamethoxam in soil ([2]; t = 28 days, nominal 0.12 mg/kg dry soil, LUFA 2.2 soil): 0.08 mg/kg dry soil
Measured Concentration of thiamethoxam in soil ([2]; t = 28 days, nominal 0.37 mg/kg dry soil, LUFA 2.2 soil): 0.27 mg/kg dry soil
Recovery Rate ([2]; t = 28 days, nominal 1.1 mg/kg dry soil): 72%
Measured Concentration of thiamethoxam in soil ([2]; t = 28 days, nominal 1.1 mg/kg dry soil, LUFA 2.2 soil): 0.79 mg/kg dry soil
Log KOW [3]: −0.13
octanol-water partition coefficient [3]: 0.741
EC50 (reproduction) [4, 10]: 0.23 (0–0.52) mg a.s./kg dry soil
LC50 (adult survival) [4, 10]: >0.37 mg a.s./kg dry soil
EC50 (reproduction) [4, 11]: 0.23 mg a.s./kg dry soil
LC50 (adult survival) [4, 11]: > 0.37 mg a.s./kg dry soil
EC10 (reproduction) ([4]; F1 generation): 0.06 (0–0.14) mg a.s./kg dry soil
EC20 (reproduction) ([4]; F1 generation): 0.09 (0–0.20) mg a.s./kg dry soil
EC50 (reproduction) [4, 12]: 0.30 (0.09–0.50) mg a.s./kg dry soil
LC50 (adult survival) [4, 12]: >0.37 mg a.s./kg dry soil
EC50 (reproduction) [4, 13]: 0.30 mg a.s./kg dry soil
LC50 (adult survival) [4, 13]: > 0.37 mg a.s./kg dry soil
EC10 (reproduction) ([4]; F2 generation): 0.15 (0–0.64) mg a.s./kg dry soil
EC20 (reproduction) ([4]; F2 generation): 0.20 (0–0.63) mg a.s./kg dry soil
EC50 (reproduction) ([4]; Parental generation, 28 days exposure (Actara 27 days)): 0.23 (0.20–0.30) mg a.s./kg dry soil
LC50 (adult survival) ([4]; Parental generation, 28 days exposure (Actara 27 days), 95% CI in brackets): 0.32 (0.30–0.40) mg a.s./kg dry soil
LC50 (adult survival) ([4]; Parental generation, 28 days exposure (Actara 27 days), 95% CI in brackets, listed as pure thiamethoxam): 0.32–0.35 mg a.s./kg dry soil and 0.32 mg a.s./kg dry soil
EC50 (reproduction) ([4]; Parental generation, 28 days exposure (Actara 27 days), listed as pure thiamethoxam): 0.23–0.25 mg a.s./kg dry soil
EC10 (reproduction) ([4]; Parental generation): 0.07 (0.03–0.10) mg a.s./kg dry soil
EC20 (reproduction) ([4]; Parental generation): 0.12 (0.070–0.20) mg a.s./kg dry soil
half-life in soil ([5]; ref Bonmatin et al. [2015]): ≤ 355 days

N#C/N=C1\SCCN1Cc1ccc(Cl)nc1 [thiacloprid]
half-life in soil ([5]; ref Van Gestel et al. [2017]): 10 to 12 days

Reference: article PMC6132986, “Assessing the toxicity of thiamethoxam, in natural LUFA 2.2 soil, through three generations of Folsomia candida” (Ecotoxicology (London, England), 2018)
